Measured values published in patent US11851449B2, “Heterocyclic amide compounds having an RORvt inhibitory action” (TAKEDA PHARMACEUTICAL COMPANY LIMITED, priority 2013, dated 2023).
Where two headings read alike, the source gives them in different places.

Columns and labels:
RORγt [1] = biological target: T1, RORγt (Homo sapiens, UniProt P51449); experiment: RORγt binding test (TR-FRET, fluorescent-labeled cholesterol); conditions: read-out: binding inhibitory rate (%) of fluorescent-labeled cholesterol to RORγt at test compound 1 μM
T1 sequence (P51449 1-497 isoform P51449-2): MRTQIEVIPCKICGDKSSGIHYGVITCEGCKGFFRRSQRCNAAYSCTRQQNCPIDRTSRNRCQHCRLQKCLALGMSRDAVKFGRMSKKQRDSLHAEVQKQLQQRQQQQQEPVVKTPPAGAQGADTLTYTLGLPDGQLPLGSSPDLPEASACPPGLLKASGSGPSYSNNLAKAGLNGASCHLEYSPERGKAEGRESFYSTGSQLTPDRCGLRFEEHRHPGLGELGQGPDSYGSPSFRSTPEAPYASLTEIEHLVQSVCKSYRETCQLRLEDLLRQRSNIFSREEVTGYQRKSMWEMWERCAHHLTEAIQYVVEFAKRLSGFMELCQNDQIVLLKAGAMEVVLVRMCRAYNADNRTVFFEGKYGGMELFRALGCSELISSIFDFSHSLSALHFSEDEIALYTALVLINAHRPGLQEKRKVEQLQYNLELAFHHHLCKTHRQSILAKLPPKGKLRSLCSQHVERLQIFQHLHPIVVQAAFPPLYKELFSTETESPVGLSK
Outline: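 His-tagged RORγt and BODIPY-cholesterol were incubated with compound for 20 min at room temperature in Tris-HCl pH 7.5, 100 mM NaCl, 1 mM DTT and 0.1% BSA. Terbium anti-His antibody was then added for a further 20 min.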

RORγt [2] = biological target: T1, RORγt; experiment: Cofactor recruitment test (Alpha Screen, biotinylated SRC-1 peptide); format: biochemical; conditions: read-out: signal value inhibitory rate (%) at test compound 1 μM
Method: Cofactor Recruitment Test
Cofactor recruitment test was performed by Alpha Screen (Histidine Detection Kit, PerkinElmer) method. First, a test compound was diluted with an assay buffer (50 mM Tris-HCl (pH 7.5), 50 mM KCl, 1 mM DTT, 0.1% BSA) and added to a 384 well plate by 5 μL. […] The mixture was stood in a dark place for 1 hr, and the signal value was measured by Envision (PerkinElmer).

RORγt [3] = biological target: T1, RORγt; experiment: Jurkat reporter test (human IL-17 ROR response element luciferase reporter); format: cell-based; conditions: read-out: luminescence level inhibitory rate (%) at test compound 3 μM
Outline: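 Luminescence (Bright-Glo, 10 min, RT) was measured after overnight compound treatment of electroporated Jurkat cells (1350 V, 10 ms interval, 3 pulses). The reaction medium was RPMI with 10% lipid-reduced FCS, 10 mM HEPES (pH 7.5) and 5 μM lovastatin.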

[4] = test compound 3 μM, Jurkat cells

| Compound | inhibition at 1 µM (RORγt [1]) [%] | inhibition at 1 µM (RORγt [2]) [%] | inhibition at 3 µM (RORγt [3]; [4]) [%] | inhibition at 3 µM (RORγt [3]; Jurkat) [%] |
| --- | --- | --- | --- | --- |
| COCc1ccc([C@@H](NC(=O)Cn2cnccc2=O)C(=O)Nc2ccc(C(C)(C)C)c(F)c2)cc1 [Example 100, (2R)—N-(4-tert-butyl-3-fluorophenyl)-2-(4-(methoxymethyl)phenyl)-2-(((6-oxopyrimidin-1(6H)-yl)acetyl)amino)acetamide] | 99.6 | 86.3 | 99.4 | – |
| COCc1ccc([C@@H](NC(=O)[C@@H]2CNC(=O)C2)C(=O)Nc2ccc(C(C)(C)C)c(F)c2)cc1 [Example 101, (3S)—N-((1R)-2-((4-tert-butyl-3-fluorophenyl)amino)-1-(4-(methoxymethyl)phenyl)-2-oxoethyl)-5-oxopyrrolidine-3-carboxamide] | 101 | 87.6 | 99.5 | – |
| COCc1ccc([C@@H](NC(=O)[C@H]2CNC(=O)C2)C(=O)Nc2ccc(C(C)(C)C)c(F)c2)cc1 [Example 102, (3R)—N-((1R)-2-((4-tert-butyl-3-fluorophenyl)amino)-1-(4-(methoxymethyl)phenyl)-2-oxoethyl)-5-oxopyrrolidine-3-carboxamide] | 100 | 83.8 | 97.8 | – |
| COCc1ccc([C@@H](NC(=O)CC(C)(C)C(=O)O)C(=O)Nc2cc(F)c([Si](C)(C)C)c(F)c2)cc1 [Example 103, 4-(((1R)-2-((3,5-difluoro-4-(trimethylsilyl)phenyl)amino)-1-(4-(methoxymethyl)phenyl)-2-oxoethyl)amino)-2,2-dimethyl-4-oxobutanoic acid] | 102 | 96.2 | – | 100 |
| COCc1ccc(C(NC(=O)[C@@H]2CNC(=O)C2)C(=O)Nc2ccc(C(C)(C)C)c(Cl)c2)cc1 (stereo partly drawn) [Example 104, (3S)—N-(2-((4-tert-butyl-3-chlorophenyl)amino)-1-(4-(methoxymethyl)phenyl)-2-oxoethyl)-5-oxopyrrolidine-3-carboxamide] | 101 | 74.9 | 96.1 | – |
| COCc1ccc([C@@H](NC(=O)Cc2nnc(C)o2)C(=O)Nc2ccc(C(C)(C)C)c(F)c2)cc1 [Example 105, (2R)—N-(4-tert-butyl-3-fluorophenyl)-2-(4-(methoxymethyl)phenyl)-2-(((5-methyl-1,3,4-oxadiazol-2-yl)acetyl)amino)acetamide] | 101 | 85.5 | 100 | – |
| COCc1ccc([C@@H](NC(=O)CCCC(=O)O)C(=O)Nc2cc(F)c([Si](C)(C)C)c(F)c2)cc1 [Example 107, 5-(((1R)-2-((3,5-difluoro-4-(trimethylsilyl)phenyl)amino)-1-(4-(methoxymethyl)phenyl)-2-oxoethyl)amino)-5-oxopentanoic acid] | 103 | 95.7 | – | 100 |
| COCc1ccc([C@@H](NC(=O)CCC(=O)O)C(=O)Nc2cc(F)c([Si](C)(C)C)c(F)c2)cc1 [Example 108, 4-(((1R)-2-((3,5-difluoro-4-(trimethylsilyl)phenyl)amino)-1-(4-(methoxymethyl)phenyl)-2-oxoethyl)amino)-4-oxobutanoic acid] | 100 | 95.3 | – | 99.7 |
| CC(C)(C)c1ccc(NC(=O)[C@H](NC(=O)[C@@H]2CNC(=O)C2)c2ccc3c(c2)CCO3)cc1F [Example 111, (3S)—N-((1R)-2-((4-tert-butyl-3-fluorophenyl)amino)-1-(2,3-dihydro-1-benzofuran-5-yl)-2-oxoethyl)-5-oxopyrrolidine-3-carboxamide] | 100 | 53 | 97.4 | – |
| Cn1ncc2cc([C@@H](NC(=O)[C@@H]3CNC(=O)C3)C(=O)Nc3ccc([Si](C)(C)C)c(F)c3)ccc21 [Example 112, (3S)—N-((1R)-2-((3-fluoro-4-(trimethylsilyl)phenyl)amino)-1-(1-methyl-1H-indazol-5-yl)-2-oxoethyl)-5-oxopyrrolidine-3-carboxamide] | 103 | 83.2 | – | 100 |
| COCc1ccc([C@@H](NC(=O)[C@H]2CNC(=O)C2)C(=O)Nc2cc(F)c(C(C)(C)C)c(F)c2)cc1 [Example 113, (3R)—N-((1R)-2-((4-tert-butyl-3,5-difluorophenyl)amino)-1-(4-(methoxymethyl)phenyl)-2-oxoethyl)-5-oxopyrrolidine-3-carboxamide] | 102 | 83.9 | 99.7 | – |
| COCc1ccc([C@@H](NC(=O)Cc2cc(O)no2)C(=O)Nc2cc(F)c(C(C)(C)C)c(F)c2)cc1 [Example 114, (2R)—N-(4-tert-butyl-3,5-difluorophenyl)-2-(((3-hydroxy-1,2-oxazol-5-yl)acetyl)amino)-2-(4-(methoxymethyl)phenyl)acetamide] | 101 | 90.1 | 102 | – |
| COCc1ccc([C@@H](NC(=O)Cn2ccc(=O)[nH]c2=O)C(=O)Nc2ccc(C(C)(C)C)c(F)c2)cc1 [Example 116, (2R)—N-(4-tert-butyl-3-fluorophenyl)-2-(((2,4-dioxo-3,4-dihydropyrimidin-1(2H)-yl)acetyl)amino)-2-(4-(methoxymethyl)phenyl)acetamide] | 103 | 76.6 | 99.8 | – |
| COCc1ccc([C@@H](NC(=O)CC2CC(=O)NC(=O)C2)C(=O)Nc2ccc(C(C)(C)C)c(F)c2)cc1 [Example 117, (2R)—N-(4-tert-butyl-3-fluorophenyl)-2-(((2,6-dioxopiperidin-4-yl)acetyl)amino)-2-(4-(methoxymethyl)phenyl)acetamide] | 103 | 78.4 | 98.5 | – |
| COc1ccc(C(NC(=O)Cn2cnc3ccccc32)C(=O)Nc2ccc([Si](C)(C)C)cc2)cc1 (stereo not drawn) [Example 289, 2-((1H-benzimidazol-1-ylacetyl)amino)-2-(4-methoxyphenyl)-N-(4-(trimethylsilyl)phenyl)acetamide] | 99.6 | 87.2 | – | 100 |
| Cn1ncc2cc([C@@H](NC(=O)Cc3cc(O)no3)C(=O)Nc3cc(F)c(C(C)(C)C)c(F)c3)ccc21 [Example 419, (2R)-N-(4-tert-butyl-3,5-difluorophenyl)-2-(((3-hydroxy-1,2-oxazol-5-yl)acetyl)amino)-2-(1-methyl-1H-indazol-5-yl)acetamide] | 103 | 87 | 101 | – |
